Results on 8 compounds are retold here after PubChem BioAssay (NCI).

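How tested: cells in 96-well plates exposed to compound for 48 hours at five concentrations. GI50 is the concentration that inhibits growth by half. The concentration for full growth arrest is given as TGI.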 *1 amine or outer side, *2 acyl side, *3 side chain or, on linkers, in order; H or OH if unused. Where a SMILES comes first, the peptide text is derived from it. Bridges are numbered along the chain shown (N, C = ends). Roman numbers before positions name the chains, in order. [ ]: non-standard residue; d: D form. Actinocin(9to1) = Cc1c2oc3c(C)ccc(C(=O)[*:1])c3nc-2c(C(=O)[*:2])c(N)c1=O; NMeV = CN[CH](C(=O)O)C(C)C; Sar = CNCC(=O)O

Some test systems named below: SF-268 CNS; HOP-92 NSCLC; UACC-62 melanoma; NCI-H522 lung; HCT-116 colon; SF-539 CNS; SW-620 colon; OVCAR-4 ovarian; SK-MEL-28 melanoma; ACHN renal.
Common to all, as to experiment: NCI-60 cell line screen, 48 h

Turning to `O=C(Nc1ccc2ncnc(Nc3ccc(Oc4cccc(F)c4)c(Cl)c3)c2c1)c1ccc(CN2CCOCC2)cc1`, the GI50 was 2.6 µM in the assay with SF-268 CNS; 2.38 µM in the assay with HOP-92 NSCLC; 1.78 µM with UACC-62 melanoma; 0.654 µM in the assay with NCI-H522 lung; 2.55 µM with HCT-116 colon; 2.51 µM with SF-539 CNS. Moreover, the GI50 was 3.21 µM in the assay with SW-620 colon, 2.53 µM in the assay on OVCAR-4 ovarian, 2.62 µM with SK-MEL-28 melanoma and 2.26 µM in the assay with ACHN renal. Also, the TGI amounted to 18.1 µM in the assay on SF-268 CNS; 15.4 µM in the assay with HOP-92 NSCLC; 3.43 µM with UACC-62 melanoma; 4.01 µM with NCI-H522 lung; 8.94 µM in the assay on HCT-116 colon; 6.99 µM in the assay with SF-539 CNS. For the same compound, the TGI in the assay on SW-620 colon amounted to 11.2 µM; in the assay on OVCAR-4 ovarian it was 8.52 µM; in the assay on SK-MEL-28 melanoma, 9.38 µM; in the assay on ACHN renal, 9.55 µM.
For `Cc1c2oc3c(C)ccc(C(=O)OC(C)C4NC(=O)C(C(C)C)N(C)C(=O)CN(C)C(=O)C5CCCN5C(=O)C(C(C)C)NC4=O)c3nc-2c(C(=O)OC(C)C2NC(=O)C(C(C)C)N(C)C(=O)CN(C)C(=O)C3CCCN3C(=O)C(C(C)C)NC2=O)c(N)c1=O` (stereo not drawn) (I: cyclo([Sar][NMeV]TVP) / II: cyclo([Sar][NMeV]TVP); linker I:3-II:3 via Actinocin(9to1); configuration not given here), the GI50 in the assay on SF-268 CNS, in the assay with HOP-92 NSCLC, in the assay on UACC-62 melanoma, in the assay with NCI-H522 lung, in the assay with HCT-116 colon and with SF-539 CNS was < 0.01 µM throughout. In addition, the GI50 is < 0.01 µM with SW-620 colon, 0.014 µM with OVCAR-4 ovarian, < 0.01 µM in the assay on SK-MEL-28 melanoma and < 0.01 µM in the assay with ACHN renal. Also, the TGI was 0.913 µM in the assay on SF-268 CNS; 0.0989 µM in the assay on HOP-92 NSCLC; 0.0125 µM with UACC-62 melanoma; < 0.0116 µM in the assay with NCI-H522 lung; > 100 µM with HCT-116 colon; 0.0656 µM with SF-539 CNS. The TGI in the assay with SW-620 colon was determined as 17.7 µM; in the assay on OVCAR-4 ovarian it was 2.03 µM; with SK-MEL-28 melanoma, 0.0307 µM; in the assay with ACHN renal it was 4.39 µM.
With `c1ccc2cc(Cn3cc[n+](Cc4ccc5ccccc5c4)c3)ccc2c1`, the GI50 in the assay with SF-268 CNS was 1.28 µM; in the assay with HOP-92 NSCLC, 0.16 µM; with UACC-62 melanoma, 0.478 µM; in the assay on NCI-H522 lung, 0.393 µM; in the assay with HCT-116 colon, 1.97 µM; in the assay on SF-539 CNS, 1.98 µM. The GI50 in the assay on SW-620 colon was 2.05 µM; in the assay on OVCAR-4 ovarian, 0.339 µM; in the assay with SK-MEL-28 melanoma, 1.2 µM; in the assay on ACHN renal, 13.7 µM. Also, the TGI was 11.1 µM in the assay with SF-268 CNS; 1.39 µM in the assay on HOP-92 NSCLC; 1.98 µM in the assay on UACC-62 melanoma; 3.11 µM in the assay with NCI-H522 lung; 12.3 µM in the assay on HCT-116 colon; 9.27 µM with SF-539 CNS. Moreover, the TGI with SW-620 colon stood at 13.6 µM; in the assay with OVCAR-4 ovarian it was 2.97 µM; in the assay on SK-MEL-28 melanoma, 3.36 µM; in the assay on ACHN renal, 27.6 µM.
`O=C1OCC(c2ccc(O)cc2)=C1c1cc(O)c(O)c(O)c1`: the GI50 with SF-268 CNS is > 100 µM; in the assay on HOP-92 NSCLC, > 100 µM; with UACC-62 melanoma it was > 100 µM; in the assay with NCI-H522 lung it was > 100 µM; in the assay with HCT-116 colon it was 36 µM; in the assay with SF-539 CNS it was > 100 µM. In addition, the GI50 in the assay with SW-620 colon is 68 µM; with OVCAR-4 ovarian it was > 100 µM; with SK-MEL-28 melanoma it was > 100 µM; in the assay with ACHN renal it was > 100 µM. Moreover, the TGI in the assay with SF-268 CNS, in the assay with HOP-92 NSCLC, in the assay with UACC-62 melanoma, in the assay with NCI-H522 lung, with HCT-116 colon and with SF-539 CNS was > 100 µM each time. The TGI in the assay on SW-620 colon, in the assay with OVCAR-4 ovarian, with SK-MEL-28 melanoma and with ACHN renal was > 100 µM throughout.
As to `COc1ccc2c3c(c(C(=O)O)oc13)CCC2`, the TGI with SF-268 CNS, in the assay with HOP-92 NSCLC, in the assay with UACC-62 melanoma, in the assay on NCI-H522 lung, in the assay on HCT-116 colon and with SF-539 CNS was > 100 µM throughout. The TGI in the assay with SW-620 colon, with OVCAR-4 ovarian, with SK-MEL-28 melanoma and in the assay with ACHN renal was > 100 µM each time.
In the case of `CCN1C(=O)N(CC)C2C1NN=c1s/c(=C\c3cccs3)c(=O)n12` (stereo not drawn), the GI50 in the assay with SF-268 CNS is 1.67 µM; with HOP-92 NSCLC, > 25.8 µM; in the assay with NCI-H522 lung, 0.0974 µM; with HCT-116 colon, 0.0903 µM; with SF-539 CNS it was 0.0949 µM; in the assay on SW-620 colon it was 0.0667 µM. Further, the GI50 in the assay with OVCAR-4 ovarian is 1.82 µM; in the assay on ACHN renal it was 0.253 µM. The TGI is > 100 µM in the assay on SF-268 CNS; > 100 µM in the assay on HOP-92 NSCLC; > 100 µM with UACC-62 melanoma; > 100 µM with NCI-H522 lung; > 100 µM with HCT-116 colon; 0.812 µM with SF-539 CNS. The TGI in the assay with SW-620 colon, in the assay with OVCAR-4 ovarian, in the assay on SK-MEL-28 melanoma and with ACHN renal was > 100 µM each time.
For `O=c1/c(=C/c2c(O)ccc3ccccc23)sc2nc3ccccc3n12`, the TGI in the assay on SF-268 CNS, in the assay on HOP-92 NSCLC, in the assay on UACC-62 melanoma, in the assay on NCI-H522 lung, in the assay with HCT-116 colon and in the assay on SF-539 CNS was > 100 µM in each case. Further, the TGI with SW-620 colon, in the assay on OVCAR-4 ovarian, with SK-MEL-28 melanoma and in the assay on ACHN renal was > 100 µM in each case.
`Oc1[nH]c(N=C2N=c3ccccc3=N2)c2ccccc12`: the GI50 is 11.6 µM with SF-268 CNS; 15 µM in the assay with HOP-92 NSCLC; 11.8 µM with UACC-62 melanoma; 11.2 µM with NCI-H522 lung; 7.3 µM in the assay on HCT-116 colon; 14.3 µM in the assay with SF-539 CNS. The GI50 in the assay with SW-620 colon was 10.6 µM; in the assay with OVCAR-4 ovarian, 6.84 µM; in the assay on SK-MEL-28 melanoma it was 12.8 µM; in the assay on ACHN renal, 12.3 µM. The TGI in the assay on SF-268 CNS worked out at 50.8 µM; with HOP-92 NSCLC, 49 µM; in the assay on UACC-62 melanoma, 36 µM; in the assay on NCI-H522 lung, 41.6 µM; with HCT-116 colon it was 29.5 µM; in the assay with SF-539 CNS it was 40.2 µM. The TGI in the assay on SW-620 colon came to 32.4 µM; in the assay on OVCAR-4 ovarian it was 24 µM; in the assay with SK-MEL-28 melanoma, 33.6 µM; in the assay with ACHN renal it was 29 µM.
